Experiment: Comparative ex vivo study of the percutaneous absorption of amitriptyline (Frantz cell)
Type: in vitro ADME
Details: ex vivo human skin, topical application
Protocol: Comparative ex vivo study of the percutaneous absorption of amitriptyline in a formulation A in aqueous gel form (invention) and in a formulation B in cream form (comparative).
Each of compositions A and B was applied on separate human skin samples. For each composition, the experiment was repeated 3 times with 3 skin samples from 3 different donors, i.e., 9 samples.
The skin samples are mounted in a Frantz cell and are heated to a surface temperature of 32° C.±1° C.
Composition A or B is spread evenly using a spatula on each skin sample at a rate of 10 mg per cell, corresponding to 5 mg/cm^2 of skin.
The skin samples are rinsed 16 hours after application.
Each skin sample was placed with a tweezers on a paper towel (dermis facing downward).
The stratum corneum is removed using adhesive strips.
After removing the stratum corneum, the sample is perforated. The epidermis is then separated from the dermis. Each of them is placed in separate bottles.
The different samples were then extracted.

Compound: CN(C)CCC=C1c2ccccc2CCc2ccccc21 [amitriptyline, Amitriptyline]
- systemic passage of amitriptyline: less than 0.1 % of the administered dose

— patent US20230103300A1, “TOPICAL PHARMACEUTICAL COMPOSITION IN GEL FORM COMPRISING AT LEAST AMI[…] USE IN THE TREATMENT OF CORONAVIRUS-INDUCED NEUROPATHIC PAIN” (AlgoTherapeutix, priority 2021, published 2023)
